Results taken from patent publication US20180169242A1, “PHARMACEUTICAL COMBINATION FOR CANCER TREATMENT AND THE THERAPEUTIC USE THEREOF” (Shiner Pharm Corp., priority 2016, published 2018).

System: Lewis lung carcinoma cells
Test: Local tumor growth (tumor volume) in Lewis lung carcinoma animal model
Assay type: in vivo, C57BL/6 mice
Conditions: metformin 200 mg/kg/day, fluvastatin 80 mg/kg/day
Procedure: Lewis lung carcinoma (LLC) model was established.
The cancer inhibiting effect of metformin and statin was examined. After the mice were sacrificed, tumor volume on the right thigh of the mice was measured to deteiiiiine local tumor growth.

## CN(C)C(=N)N=C(N)N [metformin]
No irradiation, day 7 to day 11, tumor volume on right thigh at day 21
  therapeutic effect on tumor volume compared with the sham group: did not exhibit any therapeutic effect
With 40 Gy irradiation in two 20 Gy fractions (day 8, day 10), compared with RT alone, RT+M and RT+S, day 21
  local tumor growth / tumor volume when combined with radiotherapy: neither combining radiotherapy with metformin alone or with statin alone could suppress local tumor growth
